Assays:
XIAP BIR3 = target: T1, XIAP BIR3 (Homo sapiens, UniProt P98170); experiment: XIAP BIR3 binding assay (DELFIA), displacement of SMAC peptide; conditions: GST-fusion BIR3 domain (aa 241 to 356) 10 nM, SMAC peptide 10 nM; activity of the (S)-isomers
T1 construct: covering amino acids 241 to 356; XIAP BIR3; made in house; host or cells: E. coli
Summary of the method: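 Each BIR3 domain (10 nM) incubated with biotinylated N-terminal SMAC peptide (10 nM) and compound for 1 h at room temp in Tris/NaCl buffer with BSA, DTT and Triton X-100. Captured on streptavidin plates; bound BIR3 detected by Eu-labelled anti-GST time-resolved fluorescence, giving IC50 values.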

cIAP1 BIR3 = target: T2, cIAP1 BIR3 (Homo sapiens, UniProt Q13490); experiment: cIAP1 BIR3 binding assay (DELFIA), displacement of SMAC peptide; conditions: GST-fusion BIR3 domain (aa 256 to 363) 10 nM, SMAC peptide 10 nM; activity of the (S)-isomers
T2 construct: covering amino acids 256 to 363; cIAP1 BIR3; made in house; host or cells: E. coli
Method: Biological Methods XIAP BIR3 and cIAP1 BIR3 Binding Assays (DELFIA)
Peptide […]-Lys(Biotin), representing the N-terminus of mature human SMAC (SMAC peptide), was used as interaction partner in the protein-peptide interaction assay.
BIR3 domains (10 nM) were incubated with SMAC peptide (10 nM) in Assay Buffer (50 mM Tris, 120 mM NaCl, 0.1% BSA, 1 mM DTT, 0.05% TritonX100) for one hour at room temperature in the presence of inhibitiory compounds. The assay mixture was transferred to a strepatvidin coated plate and incubated for one hour at room temperature to allow binding of the biotinylated peptide and associated BIR3 domains to the plate. After several washing steps Eu labeled anti-GST antibody (e.g. Perkin Elmer DELFIA Eu-N1-antiGST AD0250) was added to detect BIR3 domain-SMAC peptide interactions according to Perkin Elmer's instructions. […] Time resolved Europium fluoresecence was measured in a Wallac Victor using Standard assay settings.
DELFIA assay results were plotted against compound concentrations and Software GraphPad Prizm was used to calculate half maximal inhibitory concentrations (IC50 values).

T2 sequence (Q13490 256-363): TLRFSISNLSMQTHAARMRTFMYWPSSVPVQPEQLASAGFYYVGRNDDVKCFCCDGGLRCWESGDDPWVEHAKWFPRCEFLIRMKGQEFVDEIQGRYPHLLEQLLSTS
T1 sequence (P98170 241-356): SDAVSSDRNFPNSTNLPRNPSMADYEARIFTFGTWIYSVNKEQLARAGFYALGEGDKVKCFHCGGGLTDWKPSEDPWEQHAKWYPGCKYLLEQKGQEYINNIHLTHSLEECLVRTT

SMILES | IC50 (XIAP BIR3) [nM] | IC50 (cIAP1 BIR3) [nM]
CC(N)C(=O)Nc1cc2ccccc2c(C#Cc2ccccn2)n1 (stereo not shown) [Example 206, 2-amino-N-[1-(2-pyridin-2-ylethynyl)isoquinolin-3-yl]-propanamide] | 3620 | 880
CNC(C)C(=O)Nc1ccc(-c2cncc(C(=O)OC)c2)c(C#Cc2cccc(C)c2)n1 (stereo not shown) [Example 13, methyl 5-[6-[[2-(methyl-amino)propanoyl]amino]-2-[2-(3-methylphenyl)ethynyl]-pyridin-3-yl]pyridine-3-carboxylate] | 96 | 12
CCOc1ccc(-c2ccc(NC(=O)C(C)NC)nc2C#Cc2ccccc2)cn1 (stereo not shown) [Example 125, N-[5-(6-ethoxypyridin-3-yl)-6-(2-phenylethynyl)pyridin-2-yl]-2-(methylamino)propanamide] | 580 | 131
[2H]C([2H])([2H])NC(C)C(=O)Nc1ccc(-c2c(C)noc2C)c(C#Cc2ccccc2)n1 (stereo not shown) [Example 168, N-[5-(3,5-dimethyl-1,2-oxazol-4-yl)-6-(2-phenylethynyl)pyridin-2-yl]-2-(trideuteriomethylamino)propanamide] | 151 | 3
CNC(=O)c1ccc(-c2ccc(NC(=O)C(C)NC)nc2C#Cc2ccccc2)cn1 (stereo not shown) [Example 182, N-methyl-5-[6-[[2-(methyl-amino)propanoyl]amino]-2-(2-phenylethynyl)pyridin-3-yl]-pyridine-2-carboxamide] | 135 | 36
CC(N)C(=O)Nc1ccc(-c2cccc(C#N)c2)c(C#Cc2ccccc2)n1 (stereo not shown) [Example 113, 2-amino-N-[5-(3-cyanophenyl)-6-(2-phenylethynyl)pyridin-2-yl]-propanamide] | 228 | 67
COC(=O)c1cccc(C#Cc2cccc(NC(=O)C(C)N)n2)c1 (stereo not shown) [Example 223, methyl 3-[2-[6-[[2-aminopropanoyl]amino]pyridin-2-yl]ethynyl]benzoate] | 2460 | 2620
CNC(C)C(=O)Nc1ccc(-c2cnn3ccccc23)c(C#Cc2ccccc2)n1 (stereo not shown) [Example 138, 2-(methylamino)-N-[6-(2-phenyl-ethynyl)-5-pyrazolo[1,5-a]-pyridin-3-ylpyridin-2-yl]propan-amide] | 55 | 12
CNC(C)C(=O)Nc1ccc(-c2c(C)nc3cc(Cl)ccn23)c(C#Cc2ccc3ncccc3c2)n1 (stereo not shown) [Example 46, N-[5-(7-chloro-2-methyl-imidazo[1,2-a]pyridin-3-yl)-6-(2-quinolin-6-ylethynyl)pyridin-2-yl]-2-(methylamino)propan-amide] | 145 | 1
CNC(C)C(=O)Nc1ccc(-c2c(C)nc3ccccn23)c(C#Cc2ccc3nc(C)ccc3c2)n1 (stereo not shown) [Example 30, 2-(methylamino)-N-[5-(2-methylimidazo[1,2-a]pyridin-3-yl)-6-[2-(2-methylquinolin-6-yl)ethynyl]pyridin-2-yl]propan-amide] | 417 | 1
CNC(C)C(=O)Nc1ccc(-c2c(C)nc3ccccn23)c(C#Cc2ccc3c(c2)oc(=O)n3C)n1 (stereo not shown) [Example 71, 2-(methylamino)-N-[5-(2-methylimidazo[1,2-a]pyridin-3-yl)-6-[2-(3-methyl-2-oxo-1,3-benzoxazol-6-yl)ethynyl]-pyridin-2-yl]propanamide] | 300 | 1
CNC(C)C(=O)Nc1ccc(-c2cc(F)cc(C(=O)OC)c2)c(C#Cc2ccccc2)n1 (stereo not shown) [Example 132, methyl 3-fluoro-5-[6-[[2-(methyl-amino)propanoyl]amino]-2-(2-phenylethynyl)pyridin-3-yl]-benzoate] | 326 | 97
CNC(C)C(=O)Nc1ccc(-c2c(C)nc3ccccn23)c(C#Cc2ccc3cnccc3c2)n1 (stereo not shown) [Example 29, N-[6-(2-isoquinolin-6-yl-ethynyl)-5-(2-methyl-imidazo[1,2-a]pyridin-3-yl)-pyridin-2-yl]-2-(methylamino)-propanamide] | 145 | 1
CNC(C)C(=O)Nc1ccc(-c2c(C)nc3ccccn23)c(C#Cc2ccc3c(c2)CCO3)n1 (stereo not shown) [Example 69, N-[6-[2-(2,3-dihydro-1-benzofuran-5-yl)ethynyl]-5-(2-methylimidazo[1,2-a]pyridin-3-yl)pyridin-2-yl]-2-(methyl-amino)propanamide] | 110 | 2
CNC(C)C(=O)Nc1ccc(-c2cncc(C)c2)c(C#Cc2ccccc2)n1 (stereo not shown) [Example 127, 2-(methylamino)-N-[5-(5-methylpyridin-3-yl)-6-(2-phenyl-ethynyl)pyridin-2-yl]propanamide] | 128 | 21
CNC(C)C(=O)Nc1ccc(-c2cnc(N3CCOCC3)nc2)c(C#Cc2ccccc2)n1 (stereo not shown) [Example 161, 2-(methylamino)-N-[5-(2-morpholin-4-ylpyrimidin-5-yl)-6-(2-phenylethynyl)pyridin-2-yl]-propanamide] | 102 | 22
CNC(C)C(=O)Nc1ccc(-c2ccc3c(c2)C(=O)NC3=O)c(C#Cc2ccccc2)n1 (stereo not shown) [Example 175, N-[5-(1,3-dioxoisoindol-5-yl)-6-(2-phenylethynyl)pyridin-2-yl]-2-(methylamino)propanamide] | 103 | 16
CNC(C)C(=O)Nc1ccc(-c2c(C)nc3ccccn23)c(C#Cc2ccc(C(N)=O)cc2)n1 (stereo not shown) [Example 63, 4-[2-[6-[[2-(methylamino)-propanoyl]amino]-3-(2-methyl-imidazo[1,2-a]pyridin-3-yl)-pyridin-2-yl]ethynyl]benzamide] | 70 | 1
CC(N)C(=O)Nc1cccc(C#Cc2cccs2)n1 (stereo not shown) [Example 217, 2-amino-N-[6-(2-thiophen-2-ylethynyl)pyridin-2-yl]propanamide] | 895 | 206
CNC(C)C(=O)Nc1ccc(-c2c(C)nc3ccccn23)c(C#Cc2ccc3c(c2)COC3)n1 (stereo not shown) [Example 53, N-[6-[2-(1,3-dihydro-2-benzofuran-5-yl)ethynyl]-5-(2-methylimidazo[1,2-a]pyridin-3-yl)pyridin-2-yl]-2-(methyl-amino)propanamide] | 116 | 1
CNC(C)C(=O)Nc1ccc(-c2c(-c3ccncc3)nc3cc(C)ccn23)c(C#Cc2ccc3c(c2)OCC(=O)N3C)n1 (stereo not shown) [Example 94, 2-(methylamino)-N-[6-[2-(4-methyl-3-oxo-1,4-benzoxazin-7-yl)ethynyl]-5-(7-methyl-2-pyridin-4-ylimidazo[1,2-a]-pyridin-3-yl)pyridin-2-yl]-propanamide] | 107 | 1
CNC(C)C(=O)Nc1ccc(-c2cncc(C#N)c2)c(C#Cc2ccccc2)n1 (stereo not shown) [Example 123, N-[5-(5-cyanopyridin-3-yl)-6-(2-phenylethynyl)pyridin-2-yl]-2-(methylamino)propanamide] | 121 | 25
CC(N)C(=O)Nc1cc2ccccc2c(C#Cc2cc(F)cc(F)c2)n1 (stereo not shown) [Example 229, 2-amino-N-[1-[2-(3,5-difluorophenyl)ethynyl]-isoquinolin-3-yl]propanamide] | 2420 | 589
CC(N)C(=O)Nc1cc2ccccc2c(C#Cc2cscn2)n1 (stereo not shown) [Example 226, 2-amino-N-[1-[2-(1,3-thiazol-4-yl)ethynyl]isoquinolin-3-yl]propanamide] | 1200 | 332
CNC(C)C(=O)Nc1ccc(-c2c(C)nc3ccccn23)c(C#Cc2ccc3cnn(C)c3c2)n1 (stereo not shown) [Example 49, 2-(methylamino)-N-[5-(2-methylimidazo[1,2-a]pyridin-3-yl)-6-[2-(1-methylindazol-6-yl)-ethynyl]pyridin-2-yl]propan-amide] | 107 | 1
CNC(C)C(=O)Nc1ccc(-c2ccc3ncn(C)c(=O)c3c2)c(C#Cc2ccccc2)n1 (stereo not shown) [Example 187, 2-(methylamino)-N-[5-(3-methyl-4-oxoquinazolin-6-yl)-6-(2-phenylethynyl)pyridin-2-yl]-propanamide] | 49 | 9
CNC(C)C(=O)Nc1ccc(-c2c(C)nc(N3CCOCC3)nc2C)c(C#Cc2ccc3c(c2)CC(=O)N3C)n1 (stereo not shown) [Example 87, N-[5-(4,6-dimethyl-2-morpholin-4-ylpyrimidin-5-yl)-6-[2-(1-methyl-2-oxo-3H-indol-5-yl)ethynyl]pyridin-2-yl]-2-(methylamino)propanamide] | 1450 | 1
CNC(C)C(=O)Nc1ccc(-c2cnc(-n3ccnc3)nc2)c(C#Cc2ccccc2)n1 (stereo not shown) [Example 192, N-[5-(2-imidazol-1-ylpyrimidin-5-yl)-6-(2-phenylethynyl)pyridin-2-yl]-2-(methylamino)propan-amide] | 76 | 22
CNC(C)C(=O)Nc1ccc(-c2c(C)nc(N3CCOCC3)nc2C)c(C#Cc2ccc3ncccc3c2)n1 (stereo not shown) [Example 54, N-[5-(4,6-dimethyl-2-morpholin-4-ylpyrimidin-5-yl)-6-(2-quinolin-6-ylethynyl)-pyridin-2-yl]-2-(methylamino)-propanamide] | 863 | 1

Reference: patent US8859541B2, “6-alkynylpyridines” (Boehringer Ingelheim International GmbH, priority 2012, dated 2014)
